In brackets after ≈: the same amount, converted by molar mass.
Legend:
Kocuria rhizophila = experiment: Disc diffusion test (antibacterial activity); assay type: cell-based; conditions: paper discs (diameter 5 mm) saturated with 5 nmol compound; LB agar covered with lincomycin sensitive test strain Kocuria rhizophila; 37° C., 20 h
Method: Filtration paper discs (geometric diameter 5 mm) saturated with 5 nmol of tested novel lincosamide compounds were placed on LB agar plates (tryptone 10 g, yeast extract 5 g, NaCl 10 g, supplemented with distilled water to 1000 mL, pH 7.5; agar 15 g) continuously covered with culture of the lincomycin sensitive test strain Kocuria rhizophila. The plates were incubated at 37° C. for 20 h.

K. rhizophila = experiment: Minimum inhibitory concentration determination (EUCAST method); assay type: cell-based, Kocuria rhizophila; conditions: K. rhizophila in LB medium, concentration range 25-1600 nM tested, 24 h at 37° C.
Method: Minimum inhibitory concentrations were determined using the previously published method (European Committee for Antimicrobial Susceptibility Testing (EUCAST), Clin Microbiol Infect (2003), 9 (8), ix-xv). 5 μL suspension (McFarland scale 0.5) of K. rhizophila bacterial culture was inoculated into 1 mL of LB medium containing test substances of the desired concentration (a concentration range of 25-1600 nM was tested). The cultures were incubated for 24 h at 37° C.

`CCC[C@@H]1C[C@@H](C(=O)N[C@@H]([C@H]2O[C@H](SCCOC(=O)c3ccccc3O)[C@H](O)[C@@H](O)[C@H]2O)[C@@H](C)OC)N(C)C1` was tested, and the “Disc diffusion test: size of inhibition zones” value (Kocuria rhizophila) was 28 mm and the MIC (K. rhizophila; Kocuria rhizophila) was 0.1 µM (≈ 0.0571 µg/mL).

`CCC[C@@H]1C[C@@H](C(=O)N[C@@H]([C@H]2O[C@H](SCCOC(=O)c3ccccc3O)[C@H](O)[C@@H](O)[C@H]2O)[C@@H](C)O)N(C)C1` was tested, and the “Disc diffusion test: size of inhibition zones” value (Kocuria rhizophila) was 29 mm and the MIC (K. rhizophila; Kocuria rhizophila) was 0.1 µM (≈ 0.0557 µg/mL).

For `CO[C@H](C)[C@@H](NC(=O)[C@@H]1CCCN1C)[C@H]1O[C@H](SCCOC(=O)c2ccccc2O)[C@H](O)[C@@H](O)[C@H]1O` [Celesticetin], the “Disc diffusion test: size of inhibition zones” value (Kocuria rhizophila) was 19 mm and the MIC (K. rhizophila) was 1.6 µM (≈ 0.846 µg/mL).

With `CCC[C@@H]1C[C@@H](C(=O)N[C@@H]([C@H]2O[C@H](SC)[C@H](O)[C@@H](O)[C@H]2O)[C@@H](C)O)N(C)C1` [Lincomycin] the “Disc diffusion test: size of inhibition zones” value (Kocuria rhizophila) was 24 mm and the MIC (K. rhizophila) was 0.4 µM (≈ 0.163 µg/mL).

Source: US10822366B2, “Lincosamide derivatives, preparation and use thereof as antimicrobial agent” (MIKROBIOLOGICKY USTAV AV CR, V. V. I., priority 2017, dated 2020)
